Our source for the Activity values is ChEMBL document CHEMBL4665724, “Structure-activity relationship analysis of dammarane-type natural products as muscle-type creatine kinase activators” (Bioorg Med Chem Lett, 2020).

Active and inactive are the calls of the source. The calls are words filed in the database; no cut-off is given here.

In experiment [1] the target is Creatine kinase M-type (Homo sapiens) (UniProt P06732). Put plainly: Activation of human CK-MM assessed as increase in enzyme activity at 5 uM relative to control.
Experiment [2] has the same target. Nature of the experiment: Activation of human CK-MM assessed as increase in enzyme activity at 10 uM relative to control.
For experiment [3] the target is unchanged. Nature of the experiment: Activation of human CK-MM assessed as increase in enzyme activity at 40 uM relative to control.
Experiment [4] shares this target. Put plainly: Activation of human CK-MM assessed as increase in enzyme activity at 80 uM relative to control.
Experiment [5] shares this target. Put plainly: Binding affinity to recombinant human His-tagged CK-MM at 20 uM by Biolayer Interferometry analysis. On the technique in general: BLI is a label-free optical method that tracks binding on a fibre tip over time.
Experiment [6] shares this target. Put plainly: Activation of human CK-MM assessed as increase in enzyme activity at 20 uM relative to control.
Experiment [7] has the same target. Nature of the experiment: Activation of human CK-MM assessed as increase in enzyme activity at 5 to 80 uM. The following applies: dose microM 5-80.
For experiment [8], the target named is Creatine kinase M-type (Oryctolagus cuniculus) (UniProt P00563). Nature of the experiment: Activation of rabbit CK-MM assessed as increase in enzyme activity at 10 uM relative to control.
The target is the same in experiment [9]. Put plainly: Activation of rabbit CK-MM assessed as increase in enzyme activity at 20 uM relative to control.
For experiment [10] the target is unchanged. Put plainly: Activation of rabbit CK-MM assessed as increase in enzyme activity at 40 uM relative to control.
Experiment [11] has the same target. Put plainly: Binding affinity to rabbit CK-MM at 20 uM.
Experiment [12] has the same target. Nature of the experiment: Activation of rabbit CK-MM assessed as increase in enzyme activity at 80 uM relative to control.
Experiment [13] has the same target. Put plainly: Activation of rabbit CK-MM assessed as increase in enzyme activity at 5 to 80 uM. The conditions noted are these: dose microM 5-80.

Sequence of Creatine kinase M-type (Homo sapiens) (P06732 whole entry): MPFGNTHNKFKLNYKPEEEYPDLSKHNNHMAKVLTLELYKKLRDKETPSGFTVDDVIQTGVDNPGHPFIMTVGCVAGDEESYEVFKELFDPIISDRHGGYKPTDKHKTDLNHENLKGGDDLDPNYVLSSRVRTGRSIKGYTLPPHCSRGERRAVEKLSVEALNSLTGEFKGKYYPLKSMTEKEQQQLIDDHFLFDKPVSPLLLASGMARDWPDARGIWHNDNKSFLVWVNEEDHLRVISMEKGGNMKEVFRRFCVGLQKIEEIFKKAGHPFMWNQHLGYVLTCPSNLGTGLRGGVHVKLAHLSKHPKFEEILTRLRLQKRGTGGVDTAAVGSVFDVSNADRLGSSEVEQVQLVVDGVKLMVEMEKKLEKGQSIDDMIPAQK
Sequence of Creatine kinase M-type (Oryctolagus cuniculus) (P00563 whole entry): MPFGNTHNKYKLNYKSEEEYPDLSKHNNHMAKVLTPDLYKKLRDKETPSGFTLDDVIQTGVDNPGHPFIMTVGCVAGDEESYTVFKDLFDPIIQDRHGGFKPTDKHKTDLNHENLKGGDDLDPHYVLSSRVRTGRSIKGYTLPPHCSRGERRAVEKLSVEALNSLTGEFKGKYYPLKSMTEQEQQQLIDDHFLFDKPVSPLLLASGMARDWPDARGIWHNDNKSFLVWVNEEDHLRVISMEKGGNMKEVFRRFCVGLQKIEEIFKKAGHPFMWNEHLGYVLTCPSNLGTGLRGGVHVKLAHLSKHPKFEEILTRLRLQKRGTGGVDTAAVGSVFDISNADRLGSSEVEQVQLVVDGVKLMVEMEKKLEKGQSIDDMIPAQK

For the molecule `CC(C)(O)CCC[C@](C)(O)[C@H]1CC[C@]2(C)[C@@H]1[C@H](O)C[C@@H]1[C@@]3(C)CC[C@H](O)C(C)(C)[C@@H]3CC[C@]12C`, the Activity came out at 17.3% in experiment [1], 8.6% in experiment [2], 7.5% in experiment [3] and 15.6% in experiment [4]. In addition, in [5] (filed as activator), the outcome was Active.

As for `CC(C)=CCC[C@](C)(O)[C@H]1CC[C@]2(C)[C@@H]1[C@H](O)C[C@@H]1[C@@]3(C)CC[C@H](O)C(C)(C)[C@@H]3CC[C@]12C`, the Activity in experiment [1] was 29.6%; in experiment [2], 35.4%; in [6], 39.2%; in experiment [3] (filed as activator) it was 54.3%; in experiment [4] (filed as activator), 53.2%; in experiment [7] (filed as activator) it was “Dose-dependent effect”. Also, the Activity in experiment [8] was found to be 9.3%; in experiment [9], 4.3%; in experiment [10], 4.2%. Besides, the result in experiment [5] (filed as activator) and in experiment [11] (filed as activator) was Active.

Consider `CC(C)=C[C@H]1C[C@](C)(O)[C@@H]2[C@H]3CC[C@@H]4[C@@]5(C)CC[C@H](O)C(C)(C)[C@@H]5CC[C@@]4(C)[C@@]34CO[C@@]2(C4)O1`, for which the Activity in experiment [1] came out at 16.9%; in [2], 11.9%; in [3], 5.7%. For the same molecule, the outcome in experiment [5] was inactive.

Take `CC(C)=CCC[C@](C)(O)[C@H]1CC[C@]2(C)[C@@H]1[C@H](O)C[C@@H]1[C@@]3(C)CC[C@H](O)C(C)(C)[C@@H]3[C@@H](O)C[C@]12C`: the Activity in experiment [1] was determined as 19.1%; in [2] it was 20.6%; in experiment [6] it was 32.2%; in experiment [3], 19.7%; in experiment [4], 13.6%; in [9] it was 4.4%. Moreover, the Activity was 3.4% in [10] and 2.1% in [12]. Besides, the result in [5] (filed as activator) and in [11] (filed as activator) was Active.

In the case of `CC(C)=CCC[C@@](C)(O)[C@H]1CC[C@]2(C)[C@@H]1[C@H](O)C[C@@H]1[C@@]3(C)CC[C@H](O)C(C)(C)[C@@H]3CC[C@]12C`, the Activity in experiment [1] was determined as 12.6%; in [2] it was 14.7%; in experiment [6], 23.5%; in experiment [3], 14.3%; in [4], 10.2%. For the same molecule, in experiment [5] (filed as activator), the outcome was Active.

For the molecule `CC1(C)CCC[C@](C)([C@H]2CC[C@]3(C)[C@@H]2[C@H](O)C[C@@H]2[C@@]4(C)CC[C@H](O)C(C)(C)[C@@H]4[C@H](O)C[C@]23C)O1`, the result in [7] and in experiment [5] was inactive.

On to `CC(C)(O)[C@H]1CC[C@@](C)([C@H]2CC[C@]3(C)[C@@H]2[C@H](O)C[C@@H]2[C@@]4(C)CC[C@H](O)C(C)(C)[C@@H]4CC[C@]23C)O1`, for which the result in experiment [7] and in experiment [5] was inactive.

Consider `CC(C)=CCC[C@](C)(O)[C@H]1CC[C@]2(C)[C@@H]1[C@H](O)C[C@@H]1[C@@]3(C)CC[C@H](O[C@@H]4O[C@H](CO)[C@@H](O)[C@H](O)[C@H]4O)C(C)(C)[C@@H]3CC[C@]12C`, for which the Activity in [9] was found to be 3.1%; in [10], 3.5%. In addition, the outcome in experiment [11] (filed as activator) was Active.

Take `CC(C)=CCC[C@](C)(O[C@@H]1O[C@H](CO)[C@@H](O)[C@H](O)[C@H]1O)[C@H]1CC[C@]2(C)[C@@H]1[C@H](O)C[C@@H]1[C@@]3(C)CC[C@H](O[C@@H]4O[C@H](CO)[C@@H](O)[C@H](O)[C@H]4O[C@@H]4O[C@H](CO)[C@@H](O)[C@H](O)[C@H]4O)C(C)(C)[C@@H]3CC[C@]12C`: the outcome in experiment [11] and in [13] was inactive.

As for `CC(C)=CCC[C@](C)(O[C@@H]1O[C@H](CO)[C@@H](O)[C@H](O)[C@H]1O)[C@H]1CC[C@]2(C)[C@@H]1[C@H](O)C[C@@H]1[C@@]3(C)CC[C@H](O)C(C)(C)[C@@H]3[C@@H](O[C@@H]3O[C@H](CO)[C@@H](O)[C@H](O)[C@H]3O)C[C@]12C`, the result in [11] and in experiment [13] was inactive.

Consider `CC1(C)[C@@H](O)CC[C@]2(C)[C@H]3C[C@@H](O)[C@@H]4[C@@H]([C@@](C)(O)CCC(=O)O)CC[C@@]4(C)[C@]3(C)CC[C@@H]12`, for which the Activity in experiment [1] is 37.6%; in experiment [2], 37.4%; in experiment [6] (filed as activator), 49.7%; in experiment [3] (filed as activator), 49.8%; in [4] (filed as activator) it was 52.1%; in experiment [7] (filed as activator), “Dose-dependent effect”. For the same molecule, the outcome in [5] (filed as activator) was Active.

As to `CC1(C)CCC[C@](C)([C@H]2CC[C@]3(C)[C@@H]2[C@H](O)C[C@@H]2[C@@]4(C)CC[C@H](O)C(C)(C)[C@@H]4CC[C@]23C)O1`, the Activity in experiment [6] came out at 7.1%; in experiment [3], 14.4%; in [4], 15.4%. The result in experiment [5] (filed as activator) was Active.
